Columns and labels:
ob/ob mice [1] = test: Plasma glucose, compound in chow, obese mice; format: in vivo, mouse (C57 B1/6J ob/ob)
Description: (§1) The compounds of this invention were tested for hypoglycemic and anti-obesity activity according to the following procedure.
(§2) Obese mice (C57 B1/6J (ob/ob)), and/or diabetic mice (C57 B1/KsJ (db/db)) were obtained from Jackson Laboratories, Bar Harbor, Maine. Obese rats (fa/fa) were obtained from Charles River Laboratories, Wilmington, Mass. Obese mice were 8 weeks of age and diabetic mice were 9 weeks of age at the start of the test. Obese rats were 12-14 weeks of age at the start.
(§3) The test compounds were dissolved in methanol, mixed with powdered Purina rodent chow on a weight of compound to weight of chow basis and thoroughly dried.
(§4) Groups of 6 control mice or rats received vehicle (methanol) treated chow.
[…] Thus, a 40 g mouse, fed the test compound at a concentration of 0.02 percent of the diet, would receive a dose of 20 mg/kg/day if it ate 4 g of chow per day.
(§5) The mice or rats were weighed before the first treatment and once at the end of each indicated treatment period.
(§6) Blood samples were collected before the first treatment and once at the end of each indicated treatment period by retro-orbital puncture using heparinized capillary tubes.
(§7) Plasma was separated by centrifugation in a Beckman microfuge for 5 minutes. Plasma glucose concentrations were determined with the Beckman glucose analyzer which uses a glucose oxidase method.

db/db mice = test: Plasma glucose, compound in chow, diabetic mice; format: in vivo, mouse (C57 B1/KsJ db/db)
Description: as §1, §2, §3, §4
(§8) Groups of 6 test mice were fed ad libitum for up to seven weeks and food consumption was measured daily by weighing the food bins before and after the addition of fresh chow. Thus, a 40 g mouse, fed the test compound at a concentration of 0.02 percent of the diet, would receive a dose of 20 mg/kg/day if it ate 4 g of chow per day.
as §5, §6, §7

ob/ob mice [2] = test: Change in weight and food consumption, compound in chow, obese mice; format: in vivo, mouse (C57 B1/6J ob/ob)
Description: as §1, §2, §3, §4, §8, §5

β3-receptors = biological target: T1, β3-receptors (Rattus norvegicus, UniProt P26255); test: Stimulation of adipocyte lipolysis (β3-effect); format: cell-based; conditions: CL1 vs BRL1 (FIG. 1), CL2 vs BRL2 (FIG. 2)
T1 construct: Rat epididymal fat pads were excised and placed in 0.9% saline; from tissue; host or cells: collagenase-isolated adipocytes from rat epididymal fat pads
T1 sequence (P26255 whole entry): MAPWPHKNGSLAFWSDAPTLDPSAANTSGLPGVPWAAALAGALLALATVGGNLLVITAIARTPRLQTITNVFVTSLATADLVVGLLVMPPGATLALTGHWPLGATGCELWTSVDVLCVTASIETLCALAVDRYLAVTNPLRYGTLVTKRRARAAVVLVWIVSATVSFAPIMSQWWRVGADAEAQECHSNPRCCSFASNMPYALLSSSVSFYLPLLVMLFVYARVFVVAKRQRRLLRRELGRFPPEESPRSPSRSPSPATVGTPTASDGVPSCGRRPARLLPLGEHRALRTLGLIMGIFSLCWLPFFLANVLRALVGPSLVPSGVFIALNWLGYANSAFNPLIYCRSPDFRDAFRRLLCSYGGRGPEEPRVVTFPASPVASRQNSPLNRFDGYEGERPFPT
Description: (§9) β-Adrenergic receptors can be divided into β1, β2 and β3 -subtypes. Activation of β1 -receptors invokes increases in heart rate while activation of β2 -receptors stimulates glycogen breakdown in muscle and thereby prevents glycogen synthesis. Activation of β3 -receptors stimulates lipolysis (the breakdown of adipose tissue triglycerides to glycerol and free fatty acids), and thereby promotes the loss of fat mass.
The β3 -effect of the compounds was determined by their ability to stimulate adipocyte lipolysis. Rat epididymal fat pads were excised and placed in 0.9% saline. Four grams of tissue were transferred to a flask with 20 ml of aerated Krebs-Henseleit bicarbonate (KHB) buffer containing 3% fatty acid-free bovine serum albumin to which 75 mg of crude bacterial collagenase (Worthington) had been added. The tissue was incubated for about 45 minutes at 37° C. with gentle shaking. The cells were then washed three times with two volumes of KHB buffer, filtered through two layers of gauze, and brought to a final volume of 80 ml with KHB buffer. One ml aliquots of the cell suspension were added to plastic test tubes containing the appropriate additions of vehicle or compound. The cells were gassed for 1 minute with 95% O2 -5% CO2, capped, and incubated at 37° C. with continuous shaking for a total of 30 minutes. The reaction was stopped by adding 0.1 ml of 30% perchloric acid and 0.1 ml of chloroform. After centrifugation, 0.5 ml of supernatant was transferred to another test tube and neutralized with 0.04 ml of 3M K2 CO3 -0.5M triethanolamine. The amount-of glycerol generated from the hydrolysis of endogenous triglycerides was determined in a coupled-enzyme spectrophotometric assay. […] The test tubes were incubated for 40 minutes at 37° C. with constant shaking. […] This value was corrected for the amount of NADH generated in the absence of glycerol by incubating another aliquot of the neutralized extract with the same assay mixture but without glycerokinase.

β1-receptors = biological target: T2, β1-receptors (Cavia porcellus, UniProt H0W3H1); test: Effect on heart rate of isolated right atria (β1-effect); parameters: species or system guinea pig
T2 construct: from tissue; host or cells: guinea pig right atria
T2 sequence (H0W3H1 1-470): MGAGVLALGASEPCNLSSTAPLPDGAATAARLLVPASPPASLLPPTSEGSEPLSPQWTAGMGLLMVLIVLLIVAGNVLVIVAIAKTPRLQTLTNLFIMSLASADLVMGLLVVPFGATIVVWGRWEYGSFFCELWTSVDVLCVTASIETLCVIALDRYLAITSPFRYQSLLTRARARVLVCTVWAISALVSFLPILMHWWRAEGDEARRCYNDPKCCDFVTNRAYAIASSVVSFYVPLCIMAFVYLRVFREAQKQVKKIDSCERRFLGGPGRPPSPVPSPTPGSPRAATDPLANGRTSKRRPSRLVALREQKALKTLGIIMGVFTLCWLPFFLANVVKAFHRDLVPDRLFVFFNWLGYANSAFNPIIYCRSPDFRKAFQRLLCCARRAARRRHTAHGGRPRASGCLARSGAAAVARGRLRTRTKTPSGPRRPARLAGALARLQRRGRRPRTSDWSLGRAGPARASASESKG
Description: as §9
Selectivity of a compound was determined using the following procedures. The effect on heart rate (β1 -effect) was determined using isolated right atria. […] The right atria were dissected and clamped at one end to a tissue holder and electrode assembly (MRA Corp.) and tied at the other end to a force-displacement transducer (Gould-Statham, Burco). The tissues were maintained at 32° C. in a 50 ml capacity glass chamber (MRA Corp.) preloaded with 0.5 g tension. Heart rate was monitored by a Grass polygragh. […] The increase in heart rate was calculated and considered to be the maximum response for that tissue. The tissues were then washed and allowed to equilibrate for 90 minutes. Cumulative concentration-response curves were then determined for each compound or vehicle. All responses were measured 5 minutes post-exposure.

β2-receptors = biological target: T3, β2-receptors (Mus musculus, UniProt P18762); test: Inhibition of insulin-mediated incorporation of 14C-glucose into glycogen in isolated soleus muscle (β2-effect)
T3 construct: Soleus muscle from mice were dissected; from tissue; host or cells: mouse soleus muscle
T3 sequence (P18762 whole entry): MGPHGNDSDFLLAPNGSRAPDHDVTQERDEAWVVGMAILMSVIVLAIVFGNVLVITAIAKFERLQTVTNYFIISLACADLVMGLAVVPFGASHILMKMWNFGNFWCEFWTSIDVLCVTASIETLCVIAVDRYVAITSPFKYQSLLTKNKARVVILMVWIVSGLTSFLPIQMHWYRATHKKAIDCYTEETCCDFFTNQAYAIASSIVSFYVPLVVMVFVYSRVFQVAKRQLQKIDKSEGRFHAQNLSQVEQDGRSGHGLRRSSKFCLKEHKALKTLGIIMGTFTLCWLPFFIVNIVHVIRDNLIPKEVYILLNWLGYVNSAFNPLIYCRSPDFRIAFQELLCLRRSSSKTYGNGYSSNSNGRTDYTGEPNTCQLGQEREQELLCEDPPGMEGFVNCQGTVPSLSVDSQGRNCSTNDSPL
Description: as §9
The β2 -effect of the compounds was determined by their ability to inhibit the insulin-mediated incorporation of ^14 C-glucose into glycogen in isolated muscle. Soleus muscle from mice were dissected, tied at each end, and placed in a clamp to maintain tension. The clamped muscle was added to a vial that contained 2 ml of KHB with 1.5% bovine serum albumin, 0.3 mU/ml insulin, 5 mM (U^-14 C) glucose, and the appropriate additions of compound or vehicle. The vial was gassed with 95% O2 -5% CO2, capped, and the tissue incubated for one hour in a rotating water bath at 37° C. The muscle was then removed, rinsed in ice-cold saline, blotted and weighed. It was then added to 1 ml of 30% KOH containing 5 mg/ml of oyster glycogen, boiled for 10 minutes, and 0.4 ml of 2% Na2 SO4 and 3.2 ml of 100% ethanol added. After standing overnight at 4° C., the glycogen was pelleted by centrifugation, washed once with 66% ethanol, and repelleted. The pellet was dissolved in 1 ml of water and the amount of radioactivity present determined by liquid scintillation.

[3] = dose 0.002 % wt of chow, week 0 (before treatment)
[4] = dose 0.002 % wt of chow, week 1
[5] = dose 0.002 % wt of chow, week 4
[6] = dose 0.005 % wt of chow, week 0 (before treatment)
[7] = dose 0.005 % wt of chow, week 1
[8] = dose 0.005 % wt of chow, week 4
[9] = CL1 vs BRL1 (FIG. 1), CL2 vs BRL2 (FIG. 2)

C[C@H](Cc1ccc2c(c1)OC(C(=O)[O-])(C(=O)[O-])O2)NC[C@H](O)c1cccc(Cl)c1.[Na+].[Na+] (stereo in doubt) [CL2, (R*,R*)-(±)-5(2-((2-(3-chlorophenyl)-2-hydroxyethyl)amino)propyl)-1,3-benzodioxole-2,2-dicarboxylic acid, disodium salt]
Plasma Glucose Levels (ob/ob mice [1]; dose 0.0005 % wt of chow, week 0 (before treatment)): 218 mg/100 ml
Plasma Glucose Levels (ob/ob mice [1]; dose 0.0005 % wt of chow, week 1): 193 mg/100 ml
Plasma Glucose Levels (ob/ob mice [1]; dose 0.0005 % wt of chow, week 4): 240 mg/100 ml
Plasma Glucose Levels (ob/ob mice [1]; [3]): 220 mg/100 ml
Plasma Glucose Levels (ob/ob mice [1]; [4]): 162 mg/100 ml
Plasma Glucose Levels (ob/ob mice [1]; [5]): 197 mg/100 ml
Plasma Glucose Levels (ob/ob mice [1]; [6]): 220 mg/100 ml
Plasma Glucose Levels (ob/ob mice [1]; [7]): 145 mg/100 ml
Plasma Glucose Levels (ob/ob mice [1]; [8]): 165 mg/100 ml
Plasma Glucose Levels (db/db mice; [3]): 453 mg/100 ml
Plasma Glucose Levels (db/db mice; [4]): 236 mg/100 ml
Plasma Glucose Levels (db/db mice; dose 0.002 % wt of chow, week 5): 190 mg/100 ml
Plasma Glucose Levels (db/db mice; dose 0.002 % wt of chow, week 7): 25 mg/100 ml
Plasma Glucose Levels (db/db mice; [6]): 452 mg/100 ml
Plasma Glucose Levels (db/db mice; [7]): 155 mg/100 ml
Plasma Glucose Levels (db/db mice; dose 0.005 % wt of chow, week 5): 145 mg/100 ml
Plasma Glucose Levels (db/db mice; dose 0.005 % wt of chow, week 7): 16 mg/100 ml
Average Daily Food Consumption (ob/ob mice [2]; dose 0.002 % wt of chow): 5.2 g/animal
Change in weight (ob/ob mice [2]; [4]): 1.6 grams
Change in weight (ob/ob mice [2]; dose 0.002 % wt of chow, week 2): 4.1 grams
Change in weight (ob/ob mice [2]; dose 0.002 % wt of chow, week 3): 4.7 grams
Change in weight (ob/ob mice [2]; [5]): 7.3 grams
Average Daily Food Consumption (ob/ob mice [2]; dose 0.005 % wt of chow): 5.9 g/animal
Change in weight (ob/ob mice [2]; [7]): 0.2 grams
Change in weight (ob/ob mice [2]; dose 0.005 % wt of chow, week 2): 1.6 grams
Change in weight (ob/ob mice [2]; dose 0.005 % wt of chow, week 3): 2.4 grams
Change in weight (ob/ob mice [2]; [8]): 4.7 grams
β3 potency in comparison (β3-receptors): slightly greater β3 potency than does BRL2
EC50 (β1-receptors): > 1000 µM
β1 activity (β1-receptors; [9]): no measurable β1 activity
EC50 (β2-receptors): > 100 µM
β2 activity (β2-receptors; [9]): only minimal β2 activity at 1×10^-4 M
